Reference: the supplement of paper PMC10307832

Legend:
R406 + Navitoclax = compound: COc1cc(Nc2ncc(F)c(Nc3ccc4c(n3)NC(=O)C(C)(C)O4)n2)cc(OC)c1OC [R406] + CC1(C)CCC(c2ccc(Cl)cc2)=C(CN2CCN(c3ccc(C(=O)NS(=O)(=O)c4ccc(N[C@H](CCN5CCOCC5)CSc5ccccc5)c(S(=O)(=O)C(F)(F)F)c4)cc3)CC2)C1 [Navitoclax] (partner 0.5 µM); experiment: relative viability (nuclei count vs DMSO), 5 days (fraction); higher = more cells survive
How it was run: (§1)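 Lung cancer cell lines were seeded in 1536-well plates and dosed by pin tool the next day, with either a single drug or a fixed anchor-drug dose combined with five library-drug doses (not always all listed) spaced in √10 steps. Five days later, one step fixed the cells and stained their nuclei (final 0.05% Triton X-100, 1% formaldehyde, 1 ug/ml Hoechst), and nuclei were counted on 4× images. Relative viability is the nuclei count in treated wells divided by the count in vehicle wells, and each value is the median of duplicate plates.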

Daporinad + Foretinib = compound: O=C(/C=C/c1cccnc1)NCCCCC1CCN(C(=O)c2ccccc2)CC1 [Daporinad] + COc1cc2c(Oc3ccc(NC(=O)C4(C(=O)Nc5ccc(F)cc5)CC4)cc3F)ccnc2cc1OCCCN1CCOCC1 [Foretinib] (partner 0.25 µM); experiment: as above
How it was run: as §1

| Cell Line | relative viability (R406 + Navitoclax; first compound 0.08 µM) | relative viability (R406 + Navitoclax; first compound 0.253 µM) | relative viability (R406 + Navitoclax; first compound 0.8 µM) | relative viability (R406 + Navitoclax; first compound 2.53 µM) | relative viability (R406 + Navitoclax; first compound 8 µM) | relative viability (Daporinad + Foretinib; first compound 0.0005 µM) | relative viability (Daporinad + Foretinib; first compound 0.001581 µM) | relative viability (Daporinad + Foretinib; first compound 0.005 µM) | relative viability (Daporinad + Foretinib; first compound 0.01581 µM) |
| --- | --- | --- | --- | --- | --- | --- | --- | --- | --- |
| 201T | 1.16 | 1.15 | 1.17 | 1.19 | 1.18 | 1.08 | 1.14 | 1.02 | 1.16 |
| A549 | 0.932 | 1.2 | 1.26 | 1.31 | 0.675 | 1.03 | 0.964 | 0.887 | 0.867 |
| A-427 | 0.912 | 1.02 | 0.981 | 0.572 | 0.78 | 1.01 | 1.06 | 1.08 | 0.596 |
| ABC-1 |  |  |  |  |  | 1.09 | 1.01 | 1.01 | 0.662 |
| BEN | 0.0867 | 0.0733 | 0.0583 | 0.0663 | 0.0726 | 0.513 | 0.722 | 0.735 | 0.773 |
| CAL-12T | 1.16 | 1.21 | 1.26 | 1.05 | 1.06 | 1.09 | 0.938 | 0.758 | 0.272 |
| COR-L23 | 0.951 | 1.04 | 1.1 | 0.836 | 0.451 | 0.993 | 1.01 | 1.14 | 0.282 |
| COR-L 105 | 0.858 | 0.755 | 1.02 | 0.805 | 0.558 | 1.09 | 0.812 | 0.983 | 1.14 |
| Calu-6 | 0.798 | 0.809 | 0.949 | 0.579 | 0.316 | 0.768 | 0.874 | 0.772 | 0.35 |
| ChaGo-K-1 | 0.969 | 1.16 | 1.01 | 0.947 | 0.44 | 0.968 | 0.943 | 0.966 | 0.382 |
| EBC-1 | 0.433 | 0.403 | 0.422 | 0.317 | 0.189 | 0.101 | 0.0907 | 0.0742 | 0.0756 |
| EKVX | 0.814 | 1.03 | 0.932 | 0.77 | 0.521 | 0.747 | 0.443 | 0.877 | 0.756 |
| EMC-BAC-2 | 1.11 | 1.38 | 1.31 | 1.12 | 0.917 | 1.14 | 1.1 | 0.518 | 0.314 |
| EPLC-272H | 1.03 | 1.18 | 1.21 | 0.63 | 0.589 | 0.695 | 0.925 | 0.845 | 1.11 |
| H3255 | 0.488 | 0.731 | 0.541 | 0.312 | 0.14 | 0.709 | 0.688 | 0.672 | 0.992 |
| HARA | 1.05 | 1.14 | 1.12 | 1.19 | 0.453 | 0.942 | 0.98 | 0.922 | 0.279 |
| HCC-15 | 0.732 | 0.77 | 0.781 |  | 0.509 | 0.916 | 1.22 | 1.12 | 1.12 |
| HCC-44 | 0.915 | 1.04 | 1.05 | 1.04 | 0.316 |  |  |  |  |
| HCC-78 | 0.729 | 0.899 | 0.876 | 0.508 | 0.43 | 0.54 |  | 0.594 | 0.62 |
| HCC-366 | 0.855 | 1.18 | 1.16 |  | 0.663 | 0.962 | 0.844 | 0.972 | 0.959 |

| Cell Line | relative viability (R406 + Navitoclax; first compound 0.08 µM) | relative viability (R406 + Navitoclax; first compound 0.253 µM) | relative viability (R406 + Navitoclax; first compound 0.8 µM) | relative viability (R406 + Navitoclax; first compound 2.53 µM) | relative viability (R406 + Navitoclax; first compound 8 µM) | relative viability (Daporinad + Foretinib; first compound 0.0005 µM) | relative viability (Daporinad + Foretinib; first compound 0.001581 µM) | relative viability (Daporinad + Foretinib; first compound 0.005 µM) | relative viability (Daporinad + Foretinib; first compound 0.01581 µM) |
| --- | --- | --- | --- | --- | --- | --- | --- | --- | --- |
| HCC-827 | 1.04 | 0.952 | 0.949 | 0.932 | 0.489 | 0.984 | 1.14 | 1.1 | 1.11 |
| HOP-62 | 0.937 | 0.985 | 1.11 | 1.1 | 1.06 | 0.838 | 1.01 | 1.1 | 0.639 |
| IA-LM | 0.799 | 1.03 | 0.946 | 1.02 | 0.843 | 1.06 | 1.12 | 1.29 | 1.26 |
| LC-2-ad | 0.514 | 0.479 | 0.453 | 0.18 | 0.101 | 1.05 | 0.97 | 0.969 | 1.06 |
| LCLC-97TM1 | 0.375 | 0.511 | 0.519 | 0.254 | 0.462 | 0.832 | 0.929 | 1.08 | 1.03 |
| LCLC-103H |  |  |  |  |  | 0.846 | 0.834 | 0.884 | 0.868 |
| LK-2 | 0.726 | 1.06 | 0.889 | 0.527 | 0.455 | 1.08 | 1.54 | 1.29 | 0.308 |
| LOU-NH91 | 0.715 | 0.701 | 0.752 | 0.318 | 0.313 | 0.95 | 0.991 | 1.11 | 1.22 |
| LU99A | 0.761 | 0.72 | 1.11 |  | 0.229 | 0.774 | 0.807 | 0.796 | 0.772 |
| LXF-289 | 0.942 | 1.01 | 1 | 0.931 | 0.251 | 0.892 | 1.09 | 0.968 | 0.962 |
| NCI-H23 | 0.712 | 0.884 | 1.07 | 0.733 | 0.518 | 0.898 | 1.02 | 0.991 | 0.611 |
| NCI-H322M | 1.13 | 1.23 | 1.28 | 0.862 | 0.534 | 0.964 | 1.13 | 0.886 | 0.478 |
| NCI-H358 |  |  |  |  |  | 0.689 | 0.898 | 0.827 | 0.545 |
| NCI-H441 |  | 0.584 | 0.818 |  | 0.446 | 1.24 | 0.997 | 1.19 | 0.911 |
| NCI-H460 | 1.16 | 1.35 | 1.25 |  | 0.476 | 1.07 | 1.04 | 0.968 | 1.02 |
| NCI-H520 | 1.02 | 1.09 | 1.05 | 0.636 | 0.251 | 0.815 | 0.384 | 0.324 | 0.181 |
| NCI-H596 | 0.836 | 1.04 | 1.16 | 0.72 | 0.115 | 0.864 | 0.965 | 0.819 | 0.325 |
| NCI-H647 | 1.04 | 1.29 | 1.18 | 0.562 | 0.467 | 1.32 | 1.18 | 1.06 | 1.28 |
| NCI-H650 |  |  |  |  |  | 1.08 | 1.09 | 1.01 | 1.08 |
